Patent publication US7030108B2, “Combating Parkinson's disease-related movement disorder” (Reed Richter, priority 1999, dated 2006)

Key:
Format in all cases: in vivo, human
[1] = system: Parkinsonian tremor (resting and action); test: Mirtazapine treatment of patients with Parkinsonian tremor (case reports)
Protocol: A patient with mild Parkinson's Disease for 4 years experienced recurrent tremor that interfered with their ability to hold and deal cards while playing bridge. […] The patient was administered mirtazapine (Remeron®, Organon) at a dosage of 30 mg per day, taken at night for concomitant depression. […] A person with a nine-year history of Parkinson's Disease characterized by bradykinesia and marked right upper extremity resting tremor was treated. […] In May 1998, they were started on mirtazapine (Remeron) at a dosage of 30 mg at night. […] No other medication had been changed.

[2] = system: levodopa-induced dyskinesias; test: Mirtazapine treatment of Parkinson's Disease patients with levodopa/dopamine-induced dyskinesias (case reports)
Protocol: A person with a 15 year history of Parkinson's Disease was treated. […] In August, 1997, the patient was started on mirtazapine (Remeron) at a dosage of 3 mg at night to aid in sleep. […] Throughout the regimen of treatment, the dose of Sinemet remained stable. […] In May 1998, they were started on mirtazapine (Remeron) at a dosage of 30 mg at night. […] No other medication had been changed.

[3] = system: essential tremor (action tremor); test: Treatment of patients with essential / action tremor without Parkinson's disease (case reports)
Protocol: A person with a 20-year history of upper extremity action tremor with a frequency of approximately 8–12 hz. The patient bad no signs or symptoms of Parkinson's disease. […] The patient was started on mirtazapine (Remeron) at a dosage of 30 mg at night.
A person with a lifelong history of action tremor and anxiety but no signs or symptoms of Parkinson's disease was treated. […] Although the tremor always improved with a decrease in the anxiety (using SSRIs and benzodiazepines) the tremor persisted at an unsatisfactory level of severity.
In March, 1998, the patient began medication with a dosage of 15 mg of mirtazapine (Remeron) at night, then on their own volition, increased the administration of the same dose of mirtazapine to twice a day (for a total dose of 30 mg).
Thus, in the patient group involved in the study of Examples 1–6, a total of fifteen individuals was treated with mirtazapine, and of such population, twelve of the patients responded well to treatment with substantial tremor reduction. Of such total of fifteen patients, eight patients had essential tremor, and five of the eight responded. […] Three patients had levodopa-induced dyskinesias and all three responded.

[4] = system: sedation; test: Sedation / drowsiness side effect in treated patients
Protocol: Two months later, the patient discontinued the administration of mirtazapine because they were oversleeping. Such oversleeping behavior was not believed to relate to the administration of mirtazapine, however. The patient in fact stopped and restarted the mirtazapine multiple times.
A person with a 15 year history of Parkinson's Disease was treated. […] In August, 1997, the patient was started on mirtazapine (Remeron) at a dosage of 3 mg at night to aid in sleep. The next morning the patient's spouse telephoned excitedly to say that the spouse had only shaken for 15 minutes. This positive development continued making their “on” time more functional.
In almost all cases, the improvement in the tremor behavior came literally overnight, that is, after an initial 30 mg dose taken in the evening before retiring. […] Patients were aware of an improvement immediately. During neurological exam, patients described the types of activities that they could perform before and after administration of mirtazapine (e.g., dealing cards, feeding oneself without spilling, being able to return to exercise classes as a consequence of the improvement experienced, etc.).

[5] = system: tremor; test: Patient group of Examples 1-6 treated for tremor / movement disorder (all types)
[6] = Example 3: person, 30 mg at night, no other medication changed
[7] = Example 3, mirtazapine restarted
[8] = Example 3, several months later, mirtazapine stopped
[9] = Example 5, 15 mg twice a day (total 30 mg)

CN1CCN2c3ncccc3Cc3ccccc3[C@H]2C1 (racemic) [mirtazapine, 1,2,3,4,10,14b-hexahydro-2-methyl-pyrazino [2,1-a]pyrido [2,3-c]benzazepine]
patient-reported effect on resting and action tremor (holding cards) ([1]; Example 1: person, mild Parkinson's Disease, 30 mg per day at night, on Sinemet, within days of initial administration): they could hold their cards without embarrassment | tremor upon reinitiated administration ([1]; Example 1, mirtazapine reinitiated, Sinemet dose unchanged): again experienced resolution of the tremors | tremor upon cessation of medication ([1]; Example 1, mirtazapine stopped, Sinemet dose unchanged): the tremor (resting and action) returned | patient-reported change in Parkinsonian tremor [1, 6]: rapid improvement | tremor upon restarting medication [1, 7]: both movement disorders again responded | tremor after stopping medication [1, 8]: return of the tremor | Parkinsonian resting tremor patients who responded ([1]; Examples 1-6, of four patients (fourth not yet returned for follow-up)): three | time the patient had shaken ([2]; Example 2: person, violent dyskinesias, 3 mg at night, reported the next morning): 15 min | dopamine-induced dyskinesias after a new dopa agonist (ropirinole) was added ([2]; Example 2, six months later, Sinemet dose stable): no increase in dopamine-induced dyskinesias | patient-reported change in dopamine-induced dyskinesias [2, 6]: rapid improvement | dyskinesia upon restarting medication [2, 7]: both movement disorders again responded | dyskinesia after stopping medication [2, 8]: return of the tremor and dyskinesia | levodopa-induced dyskinesia patients who responded ([2]; Examples 1-6, of three patients): three | postural and kinetic tremors on physical exam ([3]; Example 4: person, 20-year upper extremity action tremor, 30 mg at night): greatly reduced | patient-reported change in action tremor ([3]; Example 5: person, action tremor and anxiety, 15 mg twice a day (total 30 mg)): improvement in the tremor especially when eating or drinking | clinical exam [3, 9]: improved marginally | handwriting [3, 9]: remained a problem | essential tremor patients who responded ([3]; Examples 1-6, of eight patients with essential tremor): five | sedation side effect ([4]; Example 1, patient currently remaining on mirtazapine): without experiencing any sedation side effect | drowsiness during the day ([4]; Example 2, 3 mg at night): never reported that they were drowsy during the day | sedation ([4]; patients of the above-referenced examples): sedation did not occur | patients responding favorably with marked attenuation of tremor activity ([5]; Example 6, of ten additional patients): seven | patients responding well with substantial tremor reduction ([5]; Examples 1-6, of a total of fifteen individuals): twelve | onset of improvement in tremor behavior ([5]; in almost all cases, after an initial 30 mg dose taken in the evening): overnight

CC(C)NCC(O)COc1cccc2ccccc12 (stereo not shown) [propranolol]
response of action tremor ([3]; Example 5 patient, before mirtazapine): seemed to respond to propranolol initially
